Test results published in PMC5992992, “Functional Consequences of the Postnatal Switch From Neonatal to Mutant Adult Glycine Receptor α1 Subunits in the Shaky Mouse Model of Startle Disease” (Frontiers in Molecular Neuroscience, 2018).

Key:
[1] = molecular target: T1, glycine receptor α1 subunit (GlyR α1 Q177K, shaky) (Mus musculus, UniProt Q64018, Q205K); assay: whole-cell patch-clamp dose-response of bath-applied glycine in brain stem slices
T1 construct: gene Glra1; native GlyRs in hypoglossal motoneurons of brain stem slices (Glra1sh/sh, P18-24); with GlyR β subunit (Glrb)

[2] = molecular target: T2, glycine receptor α1 subunit (GlyR α1) (Mus musculus, UniProt Q64018); assay: as above
T2 construct: gene Glra1; native GlyRs in hypoglossal motoneurons of brain stem slices (Glra1+/+, P18-24); with GlyR β subunit (Glrb)

NCC(=O)O [glycine]
EC50 [1]: 384 µM
EC50 [2]: 277 µM
